# Measured values reported in patent US20130143840A1, “HEPARAN SULFATE REPLACEMENT THERAPY” (priority 2010, published 2013).
# “Also recorded” adds a separate entry of the source.
# Experiments:
# [1] = test system: isolated islets; assay: Heparan sulfate of islets isolated with free radical scavengers, Alcian blue staining; design: species or system mouse; settings: combined: donors pretreated with BHA 120 mg/kg i.p. and islets isolated in presence of DMTU 50 mM
# Description: Transplantation of pancreatic islets is a well established therapeutic approach for treating Type I diabetes in animals and patients. However, recovery of fully functional islets is crucial if successful transplantation is to occur, irrespective of the problems associated with the recipient's immune response against the allograft. Based on the data described herein, preservation of intra-islet heparan sulfate during islet isolation is an important factor in ensuring that normal islet function is retained. […] In fact, following isotransplantation intra-islet heparan sulfate was still depleted 3 days after transplantation but returned to normal levels 7 days post-transplant (FIG. 13). […] These observations indicate that a combination of heparan sulfate and free radical scavengers could be used to preserve beta cell heparan sulfate during islet isolation.
# [2] = target: T1, heparanase (Homo sapiens, UniProt Q9Y251); assay: Heparanase inhibitory activity (Freeman and Parish 1997 assay); type: biochemical
# T1 sequence (Q9Y251 158-543 limits assumed): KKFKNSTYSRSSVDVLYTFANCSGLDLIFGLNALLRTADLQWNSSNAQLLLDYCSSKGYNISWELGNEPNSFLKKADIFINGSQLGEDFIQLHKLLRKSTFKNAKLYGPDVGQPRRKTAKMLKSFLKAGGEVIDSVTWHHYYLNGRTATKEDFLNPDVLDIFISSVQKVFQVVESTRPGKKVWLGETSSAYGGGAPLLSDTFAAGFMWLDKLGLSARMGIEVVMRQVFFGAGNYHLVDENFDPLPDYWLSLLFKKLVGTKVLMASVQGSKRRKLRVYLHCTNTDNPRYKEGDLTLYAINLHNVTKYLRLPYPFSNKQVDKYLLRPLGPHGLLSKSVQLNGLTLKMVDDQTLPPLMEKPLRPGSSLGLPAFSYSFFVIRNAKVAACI
# T1 sequence (Q9Y251 36-109 limits assumed): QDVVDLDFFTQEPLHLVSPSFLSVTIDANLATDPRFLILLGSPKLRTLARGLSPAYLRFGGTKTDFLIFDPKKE
# [3] = test system: islet beta cells; assay: Hydrogen peroxide (ROS)-induced beta cell death after culture, Sytox green uptake; type: cell-based, mouse; settings: for Resistance to H2O2 (ROS): then 30% H2O2 for 5 min; for ability to retain beta cell viability and induce ROS resistance (in words): summary of Table 3
# [4] = test system: isolated BALB/c islet beta cells; assay: Culture-induced death of isolated islet beta cells, Sytox green uptake by flow cytometry; type: cell-based, mouse; settings: for Viability (%): untreated control 25-30% viability
# Description: (§1) Pancreatic islets were isolated from non-diabetic BALB/c mice and dissociated into a single cell suspension (>90% beta cells) by Dispase digestion. Following 2 days culture in standard tissue culture medium 62% of the beta cells were dead, based on uptake of the fluorescent DNA binding dye, Sytox green (FIG. 4, upper panels). […] In the presence of heparin the highly viable Calcein^+, PI^−population of beta cells was increased from 25% to 86%, the dead population. (Calcein^−, PI^+) reduced from 18% to 1% and the apoptotic population (Calcein^+, PI^+) improved from 52% to 6%. […] Table 1 provides a statistical analysis of the data showing that heparin, highly sulfated heparan sulfate (HS^hi) and PI-88 can protect mouse beta cells from culture-induced cell death.
# (§2) The impact of heparin treatment on beta cell viability was also independent of the source of heparin (FIG. 8a) and, based on viable cell numbers, was not observed after 1 h but did occur after continuous culture with heparin for 1-2 days (FIG. 8b).
# [5] = test system: isolated BALB/c islet beta cells; assay: Beta cell viability by Calcein-AM / propidium iodide staining, flow cytometry; type: cell-based, mouse; settings: 50 μg/ml, 2 days culture
# Description: as §1
# [6] = test system: islet beta cells; assay: Intracellular insulin content of cultured beta cells; type: cell-based, mouse; settings: 50 μg/ml, 2 days culture
# Method: Comparison of the ability of HS^hi (50 μg/ml) and undersulfated HS(HS^lo, 50 μg/ml) to protect beta cells from 2 day culture-induced cell death, as shown by Sytox green uptake (upper panels). Lower panels depict the intracellular insulin content (green histograms) of the different preparations of cultured islet cells. Serum control (red histograms) and islet cell autofluorescence (black histograms) are also shown. 85-88% of the cultured islet cells were insulin^+ beta cells.
# as §2
# [7] = test system: islet beta cells; assay: Insulin content of beta cells from islets isolated in the presence of heparin, flow cytometry; type: cell-based, mouse; settings: heparin 50 μg/ml in the islet isolation medium
# Method: This deficiency in intra-islet heparan sulfate persisted for at least 3 days after transplantation of the islets into histocompatible recipients, normal heparan sulfate levels only being regained 7 days post-transplantation (FIG. 13). Inclusion of heparin (50 μg/ml) in the islet isolation medium improved the insulin content of the islet beta cells 2-fold (FIG. 14).
# [8] = 50 μg/ml, 2 days culture, Sytox green
Molecule,"Resistance to H2O2 (ROS) ([3]; 50 μg/ml, 2 days culture)","Viability (%) [4, 8]",Hpse inhibition [2],also measured
"COc1ccc(O)c(C(C)(C)C)c1 [BHA, butylated hydroxyanisole]",,,,Alcian blue staining for heparan sulfate of isolated islets (in words) [1]: increased
"CNC(=S)NC [DMTU, dimethylthiourea]",,,,Alcian blue staining for heparan sulfate of isolated islets (in words) [1]: increased
Bis-lactobionic acid amide (C12 link),−,,,"heparanase inhibition (in words) [2]: strong to very strong heparanase inhibitors; protection from peroxide (ROS)-induced cell death / induction of ROS resistance (in words) ([3]; 50 μg/ml, 2 days culture): essentially unable to induce islet beta cells to become ROS resistance"
Chitosan,−,30%,−,
Chondroitin sulfate A,−,50%,±,
Chondroitin sulfate B,−,46%,−,
Chondroitin sulfate C,−,32%,−,
Chondroitin sulfate D,−,32%,±,
Dextran sulfate,++++,,++,"ability to retain beta cell viability and induce ROS resistance (in words) ([3]; 50 μg/ml, 2 days culture): induced high beta cell viability and ROS resistance"
Heparin,,,,"beta cell survival at 5 μg/ml (in words) ([4]; 5 μg/ml, 2 days culture): equally active; also recorded: preserved beta cell survival; protection from culture-induced cell death / beta cell survival (in words) [4, 8]: dramatically enhanced; % dead beta cells in culture (Sytox green) ([4]; heparin 50 μg/ml co-culture, controls 72.5% dead): 5.3%; dead population (Calcein−, PI+) ([5]; control 18%): 1%; Calcein+, PI− population of beta cells (highly viable) ([5]; control 25%): 86%; apoptotic population (Calcein+, PI+) ([5]; control 52%): 6%; % beta cells Calceln − PI− (cell debris) ([5]; n = 3-5/group): 9.75 ± 1.9%; change in the insulin content of cultured beta cells (in words) [6]: little or no change; insulin content of islet beta cells, increase over control [7]: 2 fold; % viable after hydrogen peroxide treatment ([3]; 2 days culture with 50 μg/ml): 95%; % cell death following hydrogen peroxide treatment ([3]; heparin 50 μg/ml co-culture, freshly isolated cells 96.1% cell death): 5.0%"
Maltopentaose sulfate,++++,,+++,"ability to retain beta cell viability and induce ROS resistance (in words) ([3]; 50 μg/ml, 2 days culture): induced high beta cell viability and ROS resistance"
O-α-D-Glucopyranosyl-{(1→4)—O-α-D-glucopyranosyl}4-(1→4)-D-glucopyranose sulfate [Maltohexaose sulfate],++++,,+++,"ability to retain beta cell viability and induce ROS resistance (in words) ([3]; 50 μg/ml, 2 days culture): induced high beta cell viability and ROS resistance"
